Assay results reported in patent publication US11192849B2, “Compounds, compositions, and methods for modulating ferroptosis and treating excitotoxic disorders” (THE TRUSTEES OF COLUMBIA UNIVERSITY IN THE CITY OF NEW YORK, priority 2013, dated 2021).

Assays:
HT-1080 cells = experiment: Cytosolic and lipid ROS production (H2DCFDA, C11-BODIPY flow cytometry) in HT-1080 cells; assay type: cell-based, human; conditions: erastin (10 μM)
Protocol: The day before the experiment, 200,000 cells/well were seeded in 6-well dishes (Corning Inc., Corning, N.Y.). The day of the experiment, cells were treated with test compounds for the indicated times, then harvested by trypsinization, resuspended in 500 μL Hanks Balanced Salt Solution (HBSS, Gibco, Invitrogen Corp., Carlsbad, Calif.) containing either H2DCFDA (25 μM), C11-BODIPY(581/591) (2 μM) or MitoSOX (5 μM) (all from Molecular Probes, Invitrogen) and incubated for 10 minutes at 37° C. in a tissue culture incubator. Cells were then resuspended in 500 μL of fresh HBSS, strained through a […] cell strainer (BD Falcon, BD Biosciences, San Jose, Calif.), and analyzed using a flow cytometer (FACSCalibur or Accuri C6, BD Biosciences), which was equipped with 488-nm laser for excitation. Data was collected from the FL1 (H2DCFDA, C11-BODIPY) or FL2 channel (MitoSOX). A minimum of 10,000 cells were analyzed per condition.

[1] = In vitro stability study in mouse plasma; assay type: in vitro ADME
Protocol: The assay was conducted by incubating 1 μM of test compounds with Mouse Plasma (Strain […]) for a series of incubation times (0, 15, 30, 60, 120 minutes) at various temperatures (wet ice, room temperature, or 37° C.) with 5% CO2 and shaking (130 rpm). At each time point, the samples were quenched with 200 μL of stop solution containing an internal standard and kept on ice. The samples were analysed by LC-MS/MS.

[2] = tested on: rat organotypic hippocampal slice culture (OHSC); experiment: Glutamate excitotoxic injury in organotypic hippocampal slice cultures (PI uptake); assay type: cell-based; conditions: 5 mM L-glutamate 3 hours; Fer-1 2 μM, CPX 5 μM, MK-801 10 μM; 24 hours
Protocol: OHSCs were cultured as previously described (Morrison et al., 2002) with approval from Columbia University's Institutional Animal Care and Use Committee (IACUC). Briefly, Sprague Dawley rat pups (P8-P10) were rapidly decapitated, and the hippocampus placed in ice-cold Gey's balanced salt solution (Sigma). 400 μm thick sections were cut using a Mcllwain tissue chopper and immediately plated on Millicell cell culture inserts (Millipore, Billerica, Mass.) in Neurobasal (Invitrogen) media supplemented with B27 (1×, Invitrogen), GlutaMAX (1 mM, Invitrogen), and D-glucose (4.5 mg/mL, Sigma) at 37° C. and 5% CO2. After 2 days in vitro (DIV), the media was changed to medium containing serum comprised of 50% DMEM (Sigma), 25% heat-inactivated horse serum (Sigma), 25% Hank's balanced salt solution (Sigma), GlutaMAX (1 mM, Invitrogen), and D-glucose (4.5 mg/mL, Sigma). Medium was changed every 2-3 days.
After 10-14 DIV, OBSCs were exposed to an excitotoxic injury consisting of a 3 hour exposure to 5 mM L-glutamate in SFM (Morrison et al., 2002). […] After the 3 hour exposure, the cultures were placed in fresh serum free media (SFM) containing 75% DMEM, 25% Hank's balanced salt solution, GlutaMAX (1 mM), D-glucose (4.5 mg/mL) until cell death was quantified at 24 hours. […]
Quantification of cell death has been described previously (Cater et al., 2007; Morrison et al., 2002). […] Percentage cell death was expressed as the number of pixels in the ROI above a threshold in the PI fluorescent image divided by the total number of pixels in the ROI.
OHSCs were treated with a lethal excitotoxic stimulus (5 mM L-glutamate, 3 hours) that mimics the consequences of stroke and neurodegenerative disease (Morrison et al., 2002; Sundstrom et al., 2005) (FIG. 5A). […] The effects of these compound treatments on propidium iodide (PI) uptake were analyzed, as an indicator of cell death, 24 hours following the end of glutamate treatment, in 3 defined regions of the OHSCs: the dentate gyrus (DG), the CA1 and the CA3 fields of the hippocampus.

## CCOC(=O)c1ccc(NC2CCCCC2)c(N)c1 [SRS8-28 (Fer-1), ethyl 3-amino-4-(cyclohexylamino)benzoate]
HT-1080 cells
  effect of inhibitor on erastin-induced ROS accumulation: prevent erastin-induced accumulation of cytosolic and lipid ROS
[1]
  mouse plasma stability: poor plasma stability
[2]
  glutamate-induced cell death (PI uptake) in DG, CA1, CA3: attenuated significantly
